Columns and labels:
[1] = target: T1, hNET (Homo sapiens, UniProt P23975); experiment: hNET neurotransmitter uptake assay (3H-NE), Assay 2; assay type: cell-based; set-up: expressed in transfected cells; host or cells: HEK-293; details: norepinephrine reuptake inhibition, 3H-NE uptake, HEK-293 hNET cells (values without asterisk); read-out: NET pIC50 (converted)
[2] = target: T2, hSERT (Homo sapiens, UniProt P31645); experiment: hSERT membrane radioligand binding assay (3H-citalopram), Assay 1; details: SERT pKi, hSERT HEK-293 membranes, 1.0 nM 3H-citalopram; values given as lower bounds
T2 sequence (P31645 whole entry): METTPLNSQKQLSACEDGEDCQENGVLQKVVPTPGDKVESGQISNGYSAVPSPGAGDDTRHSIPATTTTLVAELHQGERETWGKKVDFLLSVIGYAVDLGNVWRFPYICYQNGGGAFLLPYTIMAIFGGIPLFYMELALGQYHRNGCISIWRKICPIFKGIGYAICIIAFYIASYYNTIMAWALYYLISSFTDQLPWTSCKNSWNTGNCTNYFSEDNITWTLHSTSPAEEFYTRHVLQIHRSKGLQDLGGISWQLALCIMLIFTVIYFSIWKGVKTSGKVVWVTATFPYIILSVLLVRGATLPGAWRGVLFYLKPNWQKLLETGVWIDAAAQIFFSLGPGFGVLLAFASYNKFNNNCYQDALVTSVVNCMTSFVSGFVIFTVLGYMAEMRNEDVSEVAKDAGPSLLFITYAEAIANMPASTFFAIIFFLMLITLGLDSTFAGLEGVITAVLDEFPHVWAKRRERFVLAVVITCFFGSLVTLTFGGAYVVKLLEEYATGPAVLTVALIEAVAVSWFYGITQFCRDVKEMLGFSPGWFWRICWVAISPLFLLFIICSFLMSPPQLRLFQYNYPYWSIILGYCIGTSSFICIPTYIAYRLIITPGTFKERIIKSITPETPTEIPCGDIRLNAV
Experimental: Membrane radioligand binding assays were used to measure inhibition of labeled ligand (^3H-citalopram or ^3H-nisoxetine or ^3H-WIN35428) binding to membranes prepared from cells expressing the respective human recombinant transporter (hSERT or hNET or hDAT) in order to determine the pKi values of test compounds at the transporters.
Recombinant human embryonic kidney (HEK-293) derived cell lines stably transfected with hSERT or hNET, respectively, were grown in DMEM medium supplemented with 10% dialyzed FBS (for hSERT) or FBS (for hNET), 100 μg/mL penicillin, 100 μg/mL streptomycin, 2 mM L-glutamine and 250 μg/mL of the aminoglycoside antibiotic G418, in a 5% CO2 humidified incubator at 37° C. When cultures reached 80% confluence, the cells were washed thoroughly in PBS (without Ca^2+ and Mg^2+) and lifted with 5 mM EDTA in PBS. Cells were pelleted by centrifugation, resuspended in lysis buffer (10 mM Tris-HCl, pH7.5 containing 1 mM EDTA), homogenized, pelleted by centrifugation, then resuspended in 50 mM Tris-HCl, pH 7.5 and 10% sucrose at 4° C. Protein concentration of the membrane suspension was determined using a Bio-Rad Bradford Protein Assay kit. Membranes were snap frozen and stored at −80° C.
Binding assays were performed in a 96-well assay plate in a total volume of 200 μl assay buffer (50 mM Tris-HCl, 120 mM NaCl, 5 mM KCl, pH 7.4) with 0.5, 1, and 3 μg membrane protein, for SERT, NET and DAT, respectively.
Stock solutions (10 mM in DMSO) of test compound were prepared and serial dilutions made using Dilution Buffer (50 mM Tris-HCl, 120 mM NaCl, 5 mM KCl, pH 7.4, 0.1% BSA, 400 μM ascorbic acid).
Following a 60 minute incubation at 22° C. (or a period sufficient to reach equilibrium), the membranes were harvested by rapid filtration over a 96-well UniFilter GF/B plate, pretreated with 0.3% polyethyleneimine, and washed 6 times with 300 μl wash buffer (50 mM Tris-HCl, 0.9% NaCl, pH 7.5 at 4° C.). Plates were dried overnight at room temperature, approximately 45 μl of MicroScint™-20 (Perkin Elmer) added and bound radioactivity quantitated via liquid scintillation spectroscopy. Inhibition curves and saturation isotherms were analyzed using GraphPad Prism Software package (GraphPad Software, Inc., San Diego, Calif.). IC50 values were generated from concentration response curves using the Sigmoidal Dose Response (variable slope) algorithm in Prism GraphPad.

[3] = target: T1, hNET; experiment: hNET membrane radioligand binding assay (3H-nisoxetine), Assay 1
[4] = target: T2, hSERT; experiment: hSERT neurotransmitter uptake assay (3H-5-HT), Assay 2; assay type: cell-based; set-up: expressed in transfected cells; host or cells: HEK-293; details: serotonin reuptake inhibition, 3H-5-HT uptake, HEK-293 hSERT cells (values without asterisk); read-out: SERT pIC50 (converted)

T1 sequence (P23975 whole entry): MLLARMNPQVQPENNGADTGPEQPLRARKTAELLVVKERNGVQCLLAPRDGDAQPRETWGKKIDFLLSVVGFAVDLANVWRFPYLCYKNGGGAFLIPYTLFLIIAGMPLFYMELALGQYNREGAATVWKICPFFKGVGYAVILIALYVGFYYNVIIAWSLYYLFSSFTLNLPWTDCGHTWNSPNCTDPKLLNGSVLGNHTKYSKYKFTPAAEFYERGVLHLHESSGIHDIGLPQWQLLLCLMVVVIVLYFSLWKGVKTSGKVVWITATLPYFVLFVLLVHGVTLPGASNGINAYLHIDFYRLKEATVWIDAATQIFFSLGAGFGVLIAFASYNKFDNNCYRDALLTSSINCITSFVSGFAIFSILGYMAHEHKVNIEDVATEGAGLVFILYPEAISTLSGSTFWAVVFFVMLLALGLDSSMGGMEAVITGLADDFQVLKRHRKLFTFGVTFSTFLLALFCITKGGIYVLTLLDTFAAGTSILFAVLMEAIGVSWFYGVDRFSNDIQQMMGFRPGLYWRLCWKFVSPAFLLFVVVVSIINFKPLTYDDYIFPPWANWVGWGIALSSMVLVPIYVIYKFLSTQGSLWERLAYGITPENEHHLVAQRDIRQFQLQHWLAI

SMILES: CCCC[C@@H](Oc1cc(Cl)cc(Cl)c1)[C@H]1CCNC1 [Example 8-13, (S)-3-[(R)-1-(3,5-Dichlorophenoxy)pentyl]pyrrolidine]
- IC50 [1]: ≤ 0.01 µM
- Ki [2]: ≤ 0.01 µM
- Ki [3]: ≤ 0.01 µM
- IC50 [4]: ≤ 0.01 µM

SMILES: CC(C)C[C@H](Oc1ccccc1F)[C@H]1CCNC1 [Example 10-1, (S)-3-[(S)-1-(2-Fluorophenoxy)-3-methylbutyl]pyrrolidine]
- IC50 [1]: ≤ 0.01 µM
- Ki [2]: ≤ 0.01 µM
- Ki [3]: ≤ 0.01 µM
- IC50 [4]: ≤ 0.1 µM

SMILES: CC(C)CC(Oc1ccccc1Cl)C1CCNC1 (centres unmarked) [Example 10-3, 3-[1-(2-Chlorophenoxy)-3-methylbutyl]pyrrolidine]
- IC50 [1]: ≤ 0.01 µM
- Ki [2]: ≤ 0.01 µM
- Ki [3]: ≤ 0.01 µM
- IC50 [4]: ≤ 0.1 µM

SMILES: COc1ccccc1O[C@@H](CC(C)C)[C@H]1CCNC1 [Example 10-4, (S)-3-[(S)-1-(2-Methoxyphenoxy)-3-methylbutyl]pyrrolidine]
- IC50 [1]: ≤ 0.01 µM
- Ki [2]: ≤ 0.01 µM
- Ki [3]: ≤ 0.01 µM
- IC50 [4]: ≤ 0.1 µM

SMILES: CC(C)C[C@H](Oc1cccc(F)c1)[C@H]1CCNC1 [Example 10-5, (S)-3-[(S)-1-(3-Fluorophenoxy)-3-methylbutyl]pyrrolidine]
- IC50 [1]: ≤ 0.01 µM
- Ki [2]: ≤ 0.01 µM
- Ki [3]: ≤ 0.01 µM
- IC50 [4]: ≤ 0.1 µM

SMILES: CC(C)CC(Oc1cccc(C(F)(F)F)c1)C1CCNC1 (centres unmarked) [Example 10-7, 3-[3-Methyl-1-(3-trifluoromethylphenoxy)butyl]pyrrolidine]
- IC50 [1]: ≤ 0.1 µM
- Ki [2]: ≤ 0.01 µM
- Ki [3]: ≤ 0.1 µM
- IC50 [4]: ≤ 0.1 µM

SMILES: CC(C)C[C@H](Oc1ccc(F)cc1)[C@H]1CCNC1 [Example 10-8, (S)-3-[(S)-1-(4-Fluorophenoxy)-3-methylbutyl]pyrrolidine]
- IC50 [1]: ≤ 0.01 µM
- Ki [2]: ≤ 0.01 µM
- Ki [3]: ≤ 0.01 µM
- IC50 [4]: ≤ 0.1 µM

SMILES: CC(C)CC(Oc1ccc(F)cc1)C1CCNC1 (centres unmarked) [Example 10-9, 3-[1-(4-Fluorophenoxy)-3-methylbutyl]pyrrolidine]
- IC50 [1]: ≤ 0.01 µM
- Ki [2]: ≤ 0.01 µM
- Ki [3]: ≤ 0.01 µM
- IC50 [4]: ≤ 0.1 µM

SMILES: CC(C)CC(Oc1ccc(Cl)cc1)C1CCNC1 (centres unmarked) [Example 10-10, 3-[1-(4-Chlorophenoxy)-3-methylbutyl]pyrrolidine]
- IC50 [1]: ≤ 0.01 µM
- Ki [2]: ≤ 0.01 µM
- Ki [3]: ≤ 0.01 µM
- IC50 [4]: ≤ 0.01 µM

SMILES: CC(C)C[C@@H](Oc1ccc(Cl)cc1)[C@H]1CCNC1 [Example 10-11, (S)-3-[(R)-1-(4-Chlorophenoxy)-3-methylbutyl]pyrrolidine]
- IC50 [1]: ≤ 0.01 µM
- Ki [2]: ≤ 0.01 µM
- Ki [3]: ≤ 0.01 µM
- IC50 [4]: ≤ 0.01 µM

SMILES: CC(C)C[C@H](Oc1ccc(Cl)cc1)[C@H]1CCNC1 [Example 10-13, (S)-3-[(S)-1-(4-Chlorophenoxy)-3-methylbutyl]pyrrolidine]
- IC50 [1]: ≤ 0.01 µM
- Ki [2]: ≤ 0.01 µM
- Ki [3]: ≤ 0.01 µM
- IC50 [4]: ≤ 0.01 µM

SMILES: CC(C)CC(Oc1ccc(C(F)(F)F)cc1)C1CCNC1 (centres unmarked) [Example 10-15, 3-[3-Methyl-1-(4-trifluoromethylphenoxy)butyl]pyrrolidine]
- IC50 [1]: ≤ 0.1 µM
- Ki [2]: ≤ 0.01 µM
- Ki [3]: ≤ 0.01 µM
- IC50 [4]: ≤ 0.01 µM

SMILES: CC(C)C[C@H](Oc1ccc(C(F)(F)F)cc1)[C@H]1CCNC1 [Example 10-16, (S)-3-[(S)-3-Methyl-1-(4-trifluoromethylphenoxy)butyl]pyrrolidine]
- IC50 [1]: ≤ 0.01 µM
- Ki [2]: ≤ 0.01 µM
- Ki [3]: ≤ 0.01 µM
- IC50 [4]: ≤ 0.01 µM

SMILES: CC(C)C[C@@H](Oc1cccc(Cl)c1F)[C@H]1CCNC1 [Example 10-18, (S)-3-[(R)-1-(3-Chloro-2-fluorophenoxy)-3-methylbutyl]pyrrolidine]
- IC50 [1]: ≤ 0.01 µM
- Ki [2]: ≤ 0.01 µM
- Ki [3]: ≤ 0.01 µM
- IC50 [4]: ≤ 0.01 µM

SMILES: CC(C)C[C@H](Oc1cccc(Cl)c1F)[C@H]1CCNC1 [Example 10-19, (S)-3-[(S)-1-(3-Chloro-2-fluorophenoxy)-3-methylbutyl]pyrrolidine]
- IC50 [1]: ≤ 0.01 µM
- Ki [2]: ≤ 0.01 µM
- Ki [3]: ≤ 0.01 µM
- IC50 [4]: ≤ 0.01 µM

SMILES: CC(C)CC(Oc1cccc(C(F)(F)F)c1F)C1CCNC1 (centres unmarked) [Example 10-20, 3-[1-(2-Fluoro-3-trifluoromethylphenoxy)-3-methylbutyl]pyrrolidine]
- IC50 [1]: ≤ 0.1 µM
- Ki [2]: ≤ 0.01 µM
- Ki [3]: ≤ 0.01 µM
- IC50 [4]: ≤ 0.1 µM

SMILES: CC(C)CC(Oc1cccc(Cl)c1Cl)C1CCNC1 (centres unmarked) [Example 10-22, 3-[1-(2,3-Dichlorophenoxy)-3-methylbutyl]pyrrolidine]
- IC50 [1]: ≤ 0.01 µM
- Ki [2]: ≤ 0.01 µM
- Ki [3]: ≤ 0.01 µM
- IC50 [4]: ≤ 0.01 µM

SMILES: CC(C)C[C@@H](Oc1cccc(Cl)c1Cl)[C@H]1CCNC1 [Example 10-23, (S)-3-[(R)-1-(2,3-Dichlorophenoxy)-3-methylbutyl]pyrrolidine]
- IC50 [1]: ≤ 0.01 µM
- Ki [2]: ≤ 0.01 µM
- Ki [3]: ≤ 0.01 µM
- IC50 [4]: ≤ 0.01 µM

SMILES: CC(C)C[C@H](Oc1cccc(F)c1Cl)[C@H]1CCNC1 [Example 10-25, (S)-3-[(S)-1-(2-Chloro-3-fluorophenoxy)-3-methylbutyl]pyrrolidine]
- IC50 [1]: ≤ 0.01 µM
- Ki [2]: ≤ 0.01 µM
- Ki [3]: ≤ 0.01 µM
- IC50 [4]: ≤ 0.01 µM

SMILES: CC(C)C[C@@H](Oc1cccc(F)c1Cl)[C@H]1CCNC1 [Example 10-27, (S)-3-[(R)-1-(2-Chloro-3-fluorophenoxy)-3-methylbutyl]pyrrolidine]
- IC50 [1]: ≤ 0.01 µM
- Ki [2]: ≤ 0.01 µM
- Ki [3]: ≤ 0.01 µM
- IC50 [4]: ≤ 0.01 µM

SMILES: CC(C)CC(Oc1cccc(C(F)(F)F)c1Cl)C1CCNC1 (centres unmarked) [Example 10-29, 3-[1-(2-Chloro-3-trifluoromethylphenoxy)-3-methylbutyl]pyrrolidine]
- IC50 [1]: ≤ 0.01 µM
- Ki [2]: ≤ 0.01 µM
- Ki [3]: ≤ 0.01 µM
- IC50 [4]: ≤ 0.01 µM

SMILES: CC(C)C[C@H](Oc1cccc(C(F)(F)F)c1Cl)[C@H]1CCNC1 [Example 10-30, (S)-3-[(S)-1-(2-Chloro-3-trifluoromethylphenoxy)-3-methylbutyl]pyrrolidine]
- IC50 [1]: ≤ 0.01 µM
- Ki [2]: ≤ 0.01 µM
- Ki [3]: ≤ 0.01 µM
- IC50 [4]: ≤ 0.01 µM

SMILES: Cc1c(Cl)cccc1O[C@H](CC(C)C)[C@H]1CCNC1 [Example 10-31, (S)-3-[(R)-1-(3-Chloro-2-methylphenoxy)-3-methylbutyl]pyrrolidine]
- IC50 [1]: ≤ 0.01 µM
- Ki [2]: ≤ 0.01 µM
- Ki [3]: ≤ 0.01 µM
- IC50 [4]: ≤ 0.01 µM

SMILES: CC(C)CC(Oc1cccc(Cl)c1C(F)(F)F)C1CCNC1 (centres unmarked) [Example 10-35, 3-[1-(3-Chloro-2-trifluoromethylphenoxy)-3-methylbutyl]pyrrolidine]
- IC50 [1]: ≤ 0.01 µM
- Ki [2]: ≤ 0.01 µM
- Ki [3]: ≤ 0.01 µM
- IC50 [4]: ≤ 0.01 µM

SMILES: CC(C)C[C@H](Oc1cccc(Cl)c1C(F)(F)F)[C@H]1CCNC1 [Example 10-36, (S)-3-[(S)-1-(3-Chloro-2-trifluoromethylphenoxy)-3-methylbutyl]pyrrolidine]
- IC50 [1]: ≤ 0.01 µM
- Ki [2]: ≤ 0.01 µM
- Ki [3]: ≤ 0.01 µM
- IC50 [4]: ≤ 0.01 µM

SMILES: CC(C)CC(Oc1ccc(Cl)cc1F)C1CCNC1 (centres unmarked) [Example 10-39, 3-[1-(4-Chloro-2-fluorophenoxy)-3-methylbutyl]pyrrolidine]
- IC50 [1]: ≤ 0.01 µM
- Ki [2]: ≤ 0.01 µM
- Ki [3]: ≤ 0.01 µM
- IC50 [4]: ≤ 0.01 µM

SMILES: CC(C)C[C@H](Oc1ccc(Cl)cc1F)[C@H]1CCNC1 [Example 10-41, (S)-3-[(S)-1-(4-Chloro-2-fluorophenoxy)-3-methylbutyl]pyrrolidine]
- IC50 [1]: ≤ 0.01 µM
- Ki [2]: ≤ 0.01 µM
- Ki [3]: ≤ 0.01 µM
- IC50 [4]: ≤ 0.01 µM

SMILES: CC(C)C[C@H](Oc1ccc(Cl)cc1Cl)[C@H]1CCNC1 [Example 10-42, (S)-3-[(S)-1-(2,4-Dichlorophenoxy)-3-methylbutyl]pyrrolidine]
- IC50 [1]: ≤ 0.01 µM
- Ki [2]: ≤ 0.01 µM
- Ki [3]: ≤ 0.01 µM
- IC50 [4]: ≤ 0.01 µM

SMILES: CC(C)C[C@@H](Oc1ccc(Cl)cc1Cl)[C@H]1CCNC1 [Example 10-44, (S)-3-[(R)-1-(2,4-Dichlorophenoxy)-3-methylbutyl]pyrrolidine]
- IC50 [1]: ≤ 0.01 µM
- Ki [2]: ≤ 0.01 µM
- Ki [3]: ≤ 0.1 µM
- IC50 [4]: ≤ 0.01 µM

SMILES: Cc1cc(Cl)ccc1O[C@H](CC(C)C)[C@H]1CCNC1 [Example 10-45, (S)-3-[(R)-1-(4-Chloro-2-methylphenoxy)-3-methylbutyl]pyrrolidine]
- IC50 [1]: ≤ 0.01 µM
- Ki [2]: ≤ 0.01 µM
- Ki [3]: ≤ 0.01 µM
- IC50 [4]: ≤ 0.01 µM

SMILES: Cc1cc(Cl)ccc1O[C@@H](CC(C)C)[C@H]1CCNC1 [Example 10-47, (S)-3-[(S)-1-(4-Chloro-2-methylphenoxy)-3-methylbutyl]pyrrolidine]
- IC50 [1]: ≤ 0.01 µM
- Ki [2]: ≤ 0.01 µM
- Ki [3]: ≤ 0.01 µM
- IC50 [4]: ≤ 0.01 µM

SMILES: CC(C)CC(Oc1ccc(Cl)cc1C(F)(F)F)C1CCNC1 (centres unmarked) [Example 10-48, 3-[1-(4-Chloro-2-trifluoromethylphenoxy)-3-methylbutyl]pyrrolidine]
- IC50 [1]: ≤ 0.01 µM
- Ki [2]: ≤ 0.01 µM
- Ki [3]: ≤ 0.01 µM
- IC50 [4]: ≤ 0.01 µM

SMILES: COc1cc(Cl)ccc1O[C@@H](CC(C)C)[C@H]1CCNC1 [Example 10-49, (S)-3-[(S)-1-(4-Chloro-2-methoxyphenoxy)-3-methylbutyl]pyrrolidine]
- IC50 [1]: ≤ 0.01 µM
- Ki [2]: ≤ 0.01 µM
- Ki [3]: ≤ 0.01 µM
- IC50 [4]: ≤ 0.01 µM

SMILES: COc1ccc(F)cc1O[C@@H](CC(C)C)[C@H]1CCNC1 [Example 10-50, (S)-3-[(S)-1-(5-Fluoro-2-methoxyphenoxy)-3-methylbutyl]pyrrolidine]
- IC50 [1]: ≤ 0.01 µM
- Ki [2]: ≤ 0.01 µM
- Ki [3]: ≤ 0.01 µM
- IC50 [4]: ≤ 0.1 µM

SMILES: CC(C)C[C@H](Oc1c(F)cccc1Cl)[C@H]1CCNC1 [Example 10-52, (S)-3-[(S)-1-(2-Chloro-6-fluorophenoxy)-3-methylbutyl]pyrrolidine]
- IC50 [1]: ≤ 0.01 µM
- Ki [2]: ≤ 0.01 µM
- Ki [3]: ≤ 0.01 µM
- IC50 [4]: ≤ 0.01 µM
